Tested on: N-linked glycosylation (OST) in CHO-ER-LucT cells
Assay: CHO-ER-LucT luminescence assay for inhibition of N-linked glycosylation
Format: cell-based
Conditions: for Emax: 24 h, [compound's fold change-1.0 (DMSO)]/[NGI-1 fold change-1.0 (DMSO)]*100, read-out: Max activity (% NGI-1); for AC50: CHO-ER-LucT cells, 24 hrs exposure, seven-point dose dilution, luminescence
Description: The CHO-ER-LucT cells have been previously described (Contessa et al., 2010, Clinical Cancer Research, 16(12):3205-14) and are used for testing analog IC50 for inhibition of N-linked glycosylation in 96 or 384 well plate format. In these cells induction of luminescence is dependent on inhibition of glycosylation (and OST inhibition), and is determined after 24 hrs of exposure to the analog following the addition of luciferin substrate. The luminescent signal is then quantified using standard plate readers that detect luminescence (e.g., Biotek synergy). Experiments are performed over a seven-point dose dilution to generate dose response data and to identify IC50 values and maximal activity compared to controls. Data is transformed to log 10 values to generate a sigmoidal shaped dose response curve and fitted using nonlinear regression (curve fit) in GraphPad Prism7.
All HL compounds were tested in CHO-ER-LucT cells. IC50 (AC50) was estimated in following method: Concentration X is converted to logarithm (log10) to generate sigmoidal shape curve and dose response curve is generated using Nonlinear regression (curve fit) in Prism. EC50 (AC50) is calculated using log(agonist) vs response-(three parameters)] which uses standard Hill slope (=1).
Max activity: [compound's fold change−1.0 (DMSO)]/[NGI−1 fold change−1.0 (DMSO)]*100(%) (Eq. 1)

Row | Structure (SMILES) | Emax | AC50
1 | Cc1ccc(NC(=O)c2cc(S(=O)(=O)N(C)C)cnc2N2CCCC2)cc1 | 14.9% | 94500 nM
2 | Cc1cnc(NC(=O)c2cc(S(=O)(=O)N(C)C)cnc2N2CCCC2)s1 | 50.4% | 70400 nM
3 | Cc1cnc(NC(=O)c2cc(S(=O)(=O)N(C)C)cc(F)c2N2CCCC2)s1 | 114% | 36900 nM
4 | CCc1cnc(NC(=O)c2cc(S(=O)(=O)N(C)C)cc(F)c2N2CCCC2)s1 | 97.3% | 3760 nM
5 | Cc1nc(NC(=O)c2cc(S(=O)(=O)N(C)C)ccc2N(C)C)sc1C | 33.9% | 27900 nM
6 | CCc1cnc(NC(=O)c2cc(S(=O)(=O)N(C)C)ccc2N(C)C)s1 | 46.1% | 6850 nM
7 | Cc1nc(NC(=O)c2cc(S(=O)(=O)N(C)C)ccc2N(C)C2CC2)sc1C | 43.9% | 3440 nM
8 | CCc1cnc(NC(=O)c2cc(S(=O)(=O)N(C)C)ccc2N(C)C2CC2)s1 | 86.8% | 1190 nM
9 | CN(c1ccc(S(=O)(=O)N(C)C)cc1C(=O)Nc1nc2c(s1)COCC2)C1CCCC1 | 46.2% | 1020 nM
10 | Cc1cnc(NC(=O)c2cc(S(=O)(=O)N(C)C)cnc2N(C)CC2CC2)s1 | 48.3% | 3020 nM
11 | CCc1cnc(NC(=O)c2cc(S(=O)(=O)N3CCOCC3)ccc2N(C)CC)s1 | 130% | 620 nM
12 | CCc1cnc(NC(=O)c2cc(S(=O)(=O)N3CCOCC3)ccc2N(C)C2CC2)s1 | 129% | 2500 nM
13 | CCc1cnc(NC(=O)c2cc(S(=O)(=O)CC3CC3)ccc2N(C)C2CCCC2)s1 | 89.9% | 1530 nM
14 | Cc1nc(NC(=O)c2cc(S(=O)(=O)CC3CC3)ccc2N(C)C2CCCC2)sc1C | 41% | 2430 nM
15 | Cc1nc(NC(=O)c2cc(S(=O)(=O)N3CCOCC3)ccc2N(C)C2CC2)sc1C | 36.7% | 2530 nM
16 | C=CCN(C)c1ccc(S(=O)(=O)N(C)C)cc1C(=O)Nc1ncc(CC)s1 | 108% | 1100 nM
17 | CCc1cnc(NC(=O)c2cc(S(=O)(=O)CC3CC3)ccc2N(C)CC2CC2)s1 | 88.3% | 2590 nM
18 | Cc1nc(NC(=O)c2cc(S(=O)(=O)N3CCN(C)CC3)ccc2N(C)CC2CC2)sc1C | 76.9% | 2200 nM
19 | CN(CC1CC1)c1ccc(S(=O)(=O)N2CCOCC2)cc1C(=O)Nc1ncc(Cc2ccccc2)s1 | 116% | 13000 nM

Row | Structure (SMILES) | Emax | AC50
20 | CCc1cnc(NC(=O)c2cc(S(=O)(=O)N(C)C)ccc2N(CC)CC)s1 [Comparator, reference compound] | 46.8% | 3360 nM
21 | Cc1nc(NC(=O)c2cc(S(=O)(=O)N(C)C)ccc2N(C)C2CCCC2)sc1C [Example 1, 2-(cyclopentyl(methyl)amino)-5-(N,N-dimethylsulfamoyl)-N-(4,5-dimethylthiazol-2-yl)benzamide] | 81% | 376 nM
22 | CCc1cnc(NC(=O)c2cc(S(=O)(=O)N(C)C)ccc2N(C)C2CCCC2)s1 [Example 2, 2-(cyclopentyl(methyl)amino)-5-(N,N-dimethylsulfamoyl)-N-(5-ethylthiazol-2-yl)benzamide] | 129% | 120 nM
23 | CCc1cnc(NC(=O)c2cc(S(=O)(=O)N3CCOCC3)ccc2N(C)C(C)C)s1 [Example 5, N-(5-ethylthiazol-2-yl)-2-(isopropyl(methyl)amino)-5-(morpholinosulfonyl)benzamide] | 162% | 270 nM
24 | CCc1cnc(NC(=O)c2cc(S(=O)(=O)N3CCOCC3)ccc2N(C)C2CCCCC2)s1 [Example 6, 2-(cyclohexyl(methyl)amino)-N-(5-ethylthiazol-2-yl)-5-(morpholinosulfonyl)benzamide] | 148% | 215 nM
25 | CCc1cnc(NC(=O)c2cc(S(=O)(=O)N3CCOCC3)ccc2N(C)C2CCC2)s1 [Example 7, 2-(cyclobutyl(methyl)amino)-N-(5-ethylthiazol-2-yl)-5-(morpholinosulfonyl)benzamide] | 138% | 243 nM
26 | C=CCN(C)c1ccc(S(=O)(=O)N2CCOCC2)cc1C(=O)Nc1ncc(CC)s1 [Example 8, 2-(allyl(methyl)amino)-N-(5-ethylthiazol-2-yl)-5-(morpholinosulfonyl)benzamide] | 102% | 446 nM
27 | Cc1nc(NC(=O)c2cc(S(=O)(=O)N3CCOCC3)ccc2N(C)C2CCCC2)sc1C [Example 9, 2-(cyclopentyl(methyl)amino)-N-(4,5-dimethylthiazol-2-yl)-5-(morpholinosulfonyl)benzamide] | 83.5% | 165 nM
28 | Cc1nc(NC(=O)c2cc(S(=O)(=O)N3CCOCC3)ccc2N(C)CC2CC2)sc1C [Example 10, 2-((cyclopropylmethyl)(methyl)amino)-N-(4,5-dimethylthiazol-2-yl)-5-(morpholinosulfonyl)benzamide] | 88.7% | 128 nM
29 | CCc1cnc(NC(=O)c2cc(S(=O)(=O)N(C)C)ccc2N(C)C2CCCCC2)s1 [Example 11, 2-(cyclohexyl(methyl)amino)-5-(N,N-dimethylsulfamoyl)-N-(5-ethylthiazol-2-yl)benzamide] | 52.9% | 248 nM
30 | CCc1cnc(NC(=O)c2cc(S(=O)(=O)N(C)C)ccc2N(C)CC2CC2)s1 [Example 12, 2-((cyclopropylmethyl)(methyl)amino)-5-(N,N-dimethylsulfamoyl)-N-(5-ethylthiazol-2-yl)benzamide] | 133% | 77 nM
31 | CCc1cnc(NC(=O)c2cc(S(=O)(=O)N(C)C)ccc2N(C)CC)s1 [Example 13, 5-(N,N-dimethylsulfamoyl)-2-(ethyl(methyl)amino)-N-(5-ethylthiazol-2-yl)benzamide] | 114% | 294 nM
32 | CCc1cnc(NC(=O)c2cc(S(=O)(=O)N(C)C)ccc2N(C)C(C)C)s1 [Example 14, 5-(N,N-dimethylsulfamoyl)-N-(5-ethylthiazol-2-yl)-2-(isopropyl(methyl)amino)benzamide] | 128% | 372 nM
33 | CCc1cnc(NC(=O)c2cc(S(=O)(=O)N(C)C)ccc2N(C)C2CCC2)s1 [Example 15, 2-(cyclobutyl(methyl)amino)-5-(N,N-dimethylsulfamoyl)-N-(5-ethylthiazol-2-yl)benzamide] | 141% | 252 nM
34 | CCc1cnc(NC(=O)c2cc(S(=O)(=O)N(C)C)ccc2N(C)CC2CCC2)s1 [Example 16, 2-((cyclobutylmethyl)(methyl)amino)-5-(N,N-dimethylsulfamoyl)-N-(5-ethylthiazol-2-yl)benzamide] | 82.2% | 744 nM
35 | Cc1cnc(NC(=O)c2cc(S(=O)(=O)N(C)C)ccc2N(C)C2CCCC2)s1 [Example 17, 2-(cyclopentyl(methyl)amino)-5-(N,N-dimethylsulfamoyl)-N-(5-methylthiazol-2-yl)benzamide] | 102% | 361 nM
36 | CCc1cnc(NC(=O)c2cc(S(=O)(=O)N(C)Cc3ccccc3)ccc2N(C)CC2CC2)s1 [Example 18, 5-(N-benzyl-N-methylsulfamoyl)-2-((cyclopropylmethyl)(methyl)amino)-N-(5-ethylthiazol-2-yl)benzamide] | 71.2% | 266 nM
37 | Cc1sc(NC(=O)c2cc(S(=O)(=O)N3CCOCC3)ccc2N(C)CC2CC2)nc1-c1ccccc1 [Example 19, 2-((cyclopropylmethyl)(methyl)amino)-N-(5-methyl-4-phenylthiazol-2-yl)-5-(morpholinosulfonyl)benzamide] | 66.2% | 563 nM
